From patent publication US4110327A, “2,3 Diketo-piperazinocarbonylamino alkanoic acids and derivatives” (Toyama Chemical Co., Ltd., priority 1974, dated 1978)
In brackets after ≈: the same amount, converted by molar mass.

Legend:
Shigella sonnei = assay: MIC against clinical isolates; format: cell-based; settings: unit assumed
Experimental: (§1) The minimum inhibitory concentrations (MIC) was determined by the plate method disclosed in "Chemotherapy" (Japan), Vol. 16, (1968), pages 98 - 99. The culture medium used was a Heart infusion agar (pH 7.4). The number of the cells per plate used in the inoculum as 10^4 (10^6 cells/ml).
(§2) MIC was determined in the same manner as in the preceding paragraph (1).

Shigella flexneri = assay: MIC against clinical isolates; format: cell-based; settings: unit assumed
Experimental: as §1, §2

Proteus vulgaris = assay: MIC against clinical isolates; format: cell-based; settings: clinical isolate, unit assumed
Klebsiella pneumoniae [1] = assay: MIC against clinical isolates; format: cell-based; settings: unit assumed
Proteus mirabilis = assay: MIC against clinical isolates; format: cell-based; settings: clinical isolate, unit assumed
Salmonella typhi = assay: MIC against clinical isolates; format: cell-based; settings: unit assumed
Klebsiella pneumoniae [2] = assay: MIC against standard strain, plate method; format: cell-based; settings: unit assumed
Summary of the method: (§3)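 MIC values come from the plate method on heart infusion agar at pH 7.4, with each plate receiving 10^4 cells from a 10^6 cells/ml suspension.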

Escherichia coli NIHJ = assay: MIC against standard strain, plate method; format: cell-based; settings: unit assumed
Summary of the method: as §3

Proteus vulgaris 3027 = assay: MIC against standard strain, plate method; format: cell-based; settings: Proteus vulgaris 3027, standard strain; unit assumed
Summary of the method: as §3

[3] = tested on: Staphylococcus aureus 209p; assay: MIC against standard strain, plate method; format: cell-based; settings: unit assumed
Summary of the method: as §3

Staphylococcus aureus = assay: MIC against clinical isolates; format: cell-based; settings: unit assumed
Pseudomonas aeruginosa = assay: MIC against clinical isolates; format: cell-based; settings: unit assumed
Proteus rettgeri = assay: MIC against clinical isolates; format: cell-based; settings: clinical isolate, unit assumed
Proteus morganii = assay: MIC against clinical isolates; format: cell-based; settings: clinical isolate, unit assumed
Escherichia coli = assay: MIC against clinical isolates; format: cell-based; settings: unit assumed
Salmonella typhi-murium = assay: MIC against clinical isolates; format: cell-based; settings: unit assumed
β-lactamase = assay: Resistant activity against β-lactamase, iodometric assay; format: biochemical, Pseudomonas aeruginosa GN 238; settings: relative to Potassium Penicillin G = 100
Experimental: (3) Resistant activity against β-lactamase, Pseudomonas aergionan GN 238:
The resistant activity of each compound against β-lactamase was measured in the manner described below.
β-Lactamase was prepared from Pseudomonas aeruginosa GN 238. This microorganism was cultured in 100 ml of a medium containing 2 g of yeast extract, 10 g of polypeptone, 2 g of glucose, 7 g of disodium hydrogen phosphate, 2 g of potassium dihydrogen phosphate, 1.2 g of ammonium sulfate and 0.4 g of magnesium sulfate, per liter, in a 500-ml Erlenmeyer flask for 6 hrs. at 37° C with shaking. The resulting cells were collected by centrifugation (5,000 r.p.m. × 10 min.), washed three times with 0.1 M phosphate buffer (pH 7.0). Subsequently, the cells were subjected to sonication (20 KHz, 20 min.) and then centrifuged at 15,000 r.p.m. for 60 min. By using the supernatant of enzyme fluid, the resistance of each compound against β-lactamase was determined by the iodometric assay method. Each numeral shown in Table 7 is a relative activity value calculated by assuming as 100 the activity of the control Potassium Penicillin G.

[4] = tested on: Pseudomonas aeruginosa I.F.O.; assay: MIC against standard strain, plate method; format: cell-based; settings: unit assumed
Summary of the method: as §3

[5] = clinical isolate GN (number not given; Table 5-3)

CCN1CCN(C(=O)N[C@@H](C(=O)N[C@@H]2C(=O)N3[C@@H]2SC(C)(C)[C@@H]3C(=O)O)c2ccccc2)C(=O)C1=O [compound 36]
MIC (Shigella sonnei; clinical isolate JS 11232): 50 µg/mL (≈ 96.6 µM) | MIC (Shigella sonnei; clinical isolate JS 11755): 3.13 µg/mL (≈ 6.05 µM) | MIC (Shigella flexneri; clinical isolate JS 11215): 100 µg/mL (≈ 193 µM) | MIC (Shigella flexneri; clinical isolate JS 11839): 3.13 µg/mL (≈ 6.05 µM) | MIC (Proteus vulgaris): < 0.4 µg/mL | MIC (Klebsiella pneumoniae [1]; clinical isolate GN 3850): 12.5 µg/mL (≈ 24.2 µM) | MIC (Klebsiella pneumoniae [1]; clinical isolate GN 4081): 100 µg/mL (≈ 193 µM) | MIC (Klebsiella pneumoniae [1]; clinical isolate GN 4117): 100 µg/mL (≈ 193 µM) | MIC (Proteus mirabilis): < 0.4 µg/mL | MIC (Salmonella typhi; clinical isolate SL 819): 1.57 µg/mL (≈ 3.03 µM) | MIC (Salmonella typhi; clinical isolate SL 2169): 1.57 µg/mL (≈ 3.03 µM) | MIC (Klebsiella pneumoniae [2]): < 1.57 µg/mL | MIC (Escherichia coli NIHJ): < 1.57 µg/mL | MIC (Proteus vulgaris 3027): < 1.57 µg/mL | MIC [3]: < 1.57 µg/mL | MIC (Staphylococcus aureus; clinical isolate F-1): 12.5 µg/mL (≈ 24.2 µM) | MIC (Staphylococcus aureus; clinical isolate F-2): 3.13 µg/mL (≈ 6.05 µM) | MIC (Staphylococcus aureus; clinical isolate F-5): > 200 µg/mL | MIC (Staphylococcus aureus; clinical isolate MS 8588): 3.13 µg/mL (≈ 6.05 µM) | MIC (Staphylococcus aureus; clinical isolate MS 8596): 3.13 µg/mL (≈ 6.05 µM) | MIC (Staphylococcus aureus; clinical isolate MS 8619): 0.79 µg/mL (≈ 1.53 µM) | MIC (Staphylococcus aureus; clinical isolate MS 8684): 3.13 µg/mL (≈ 6.05 µM) | MIC (Pseudomonas aeruginosa; clinical isolate GN 221): 3.13 µg/mL (≈ 6.05 µM) | MIC (Pseudomonas aeruginosa; clinical isolate GN 1035): 25 µg/mL (≈ 48.3 µM) | MIC (Pseudomonas aeruginosa; clinical isolate GN 2565): 25 µg/mL (≈ 48.3 µM) | MIC (Pseudomonas aeruginosa; clinical isolate GN 2987): 12.5 µg/mL (≈ 24.2 µM) | MIC (Pseudomonas aeruginosa; [5]): 12.5 µg/mL (≈ 24.2 µM) | MIC (Pseudomonas aeruginosa; clinical isolate S-1): 50 µg/mL (≈ 96.6 µM) | MIC (Pseudomonas aeruginosa; clinical isolate S-2): 12.5 µg/mL (≈ 24.2 µM) | MIC (Pseudomonas aeruginosa; clinical isolate S-3): 25 µg/mL (≈ 48.3 µM) | MIC (Pseudomonas aeruginosa; clinical isolate S-4): 50 µg/mL (≈ 96.6 µM) | MIC (Proteus rettgeri): 12.5 µg/mL (≈ 24.2 µM) | MIC (Proteus morganii): < 0.4 µg/mL | MIC (Escherichia coli; clinical isolate GN 3452): 3.13 µg/mL (≈ 6.05 µM) | MIC (Escherichia coli; clinical isolate GN 3465): 100 µg/mL (≈ 193 µM) | MIC (Escherichia coli; clinical isolate GN 3481): 3.13 µg/mL (≈ 6.05 µM) | MIC (Escherichia coli; clinical isolate GN 3611): > 200 µg/mL | MIC (Escherichia coli; clinical isolate K-1): 3.13 µg/mL (≈ 6.05 µM) | MIC (Escherichia coli; clinical isolate K-2): 3.13 µg/mL (≈ 6.05 µM) | MIC (Escherichia coli; clinical isolate K-3): > 200 µg/mL | MIC (Salmonella typhi-murium; clinical isolate SL 858): 6.25 µg/mL (≈ 12.1 µM) | MIC (Salmonella typhi-murium; clinical isolate SL 2136): > 200 µg/mL | Relative activity (β-lactamase): 14%

CCCCCCCCN1CCN(C(=O)N[C@@H](C(=O)N[C@@H]2C(=O)N3[C@@H]2SC(C)(C)[C@@H]3C(=O)O)c2ccccc2)C(=O)C1=O (single isomer, unassigned) [compound 47]
MIC (Shigella sonnei; clinical isolate JS 11232): 6.25 µg/mL (≈ 10.4 µM) | MIC (Shigella sonnei; clinical isolate JS 11755): 0.79 µg/mL (≈ 1.31 µM) | MIC (Shigella flexneri; clinical isolate JS 11215): 6.25 µg/mL (≈ 10.4 µM) | MIC (Proteus vulgaris): < 0.4 µg/mL | MIC (Klebsiella pneumoniae [1]; clinical isolate GN 4081): 12.5 µg/mL (≈ 20.8 µM) | MIC (Klebsiella pneumoniae [1]; clinical isolate GN 4117): 12.5 µg/mL (≈ 20.8 µM) | MIC (Proteus mirabilis): < 0.4 µg/mL | MIC (Salmonella typhi; clinical isolate SL 819): 3.13 µg/mL (≈ 5.2 µM) | MIC (Salmonella typhi; clinical isolate SL 2169): 1.57 µg/mL (≈ 2.61 µM) | MIC [4]: 6.25 µg/mL (≈ 10.4 µM) | MIC (Klebsiella pneumoniae [2]): < 1.57 µg/mL | MIC (Escherichia coli NIHJ): < 1.57 µg/mL | MIC (Proteus vulgaris 3027): < 1.57 µg/mL | MIC [3]: < 1.57 µg/mL | MIC (Staphylococcus aureus; clinical isolate F-1): 6.25 µg/mL (≈ 10.4 µM) | MIC (Staphylococcus aureus; clinical isolate F-4): 12.5 µg/mL (≈ 20.8 µM) | MIC (Staphylococcus aureus; clinical isolate F-5): > 200 µg/mL | MIC (Staphylococcus aureus; clinical isolate MS 8619): < 0.4 µg/mL | MIC (Staphylococcus aureus; clinical isolate MS 8713): 6.25 µg/mL (≈ 10.4 µM) | MIC (Pseudomonas aeruginosa; clinical isolate GN 82): 12.5 µg/mL (≈ 20.8 µM) | MIC (Pseudomonas aeruginosa; clinical isolate GN 163): 12.5 µg/mL (≈ 20.8 µM) | MIC (Pseudomonas aeruginosa; clinical isolate GN 221): 25 µg/mL (≈ 41.5 µM) | MIC (Pseudomonas aeruginosa; clinical isolate GN 376): 50 µg/mL (≈ 83.1 µM) | MIC (Pseudomonas aeruginosa; clinical isolate GN 383): 25 µg/mL (≈ 41.5 µM) | MIC (Pseudomonas aeruginosa; clinical isolate GN 1035): 25 µg/mL (≈ 41.5 µM) | MIC (Pseudomonas aeruginosa; clinical isolate GN 1091): 12.5 µg/mL (≈ 20.8 µM) | MIC (Pseudomonas aeruginosa; clinical isolate GN 2565): 25 µg/mL (≈ 41.5 µM) | MIC (Pseudomonas aeruginosa; clinical isolate GN 2987): 12.5 µg/mL (≈ 20.8 µM) | MIC (Pseudomonas aeruginosa; [5]): 25 µg/mL (≈ 41.5 µM) | MIC (Pseudomonas aeruginosa; clinical isolate S-1): 50 µg/mL (≈ 83.1 µM) | MIC (Pseudomonas aeruginosa; clinical isolate S-2): 50 µg/mL (≈ 83.1 µM) | MIC (Pseudomonas aeruginosa; clinical isolate S-3): 50 µg/mL (≈ 83.1 µM) | MIC (Pseudomonas aeruginosa; clinical isolate S-4): 50 µg/mL (≈ 83.1 µM) | MIC (Proteus rettgeri): 0.79 µg/mL (≈ 1.31 µM) | MIC (Proteus morganii): < 0.4 µg/mL | MIC (Escherichia coli; clinical isolate GN 3435): 0.79 µg/mL (≈ 1.31 µM) | MIC (Escherichia coli; clinical isolate GN 3465): 6.25 µg/mL (≈ 10.4 µM) | MIC (Escherichia coli; clinical isolate GN 3611): > 200 µg/mL | MIC (Escherichia coli; clinical isolate K-3): 100 µg/mL (≈ 166 µM) | MIC (Escherichia coli; clinical isolate K-4): 0.79 µg/mL (≈ 1.31 µM) | MIC (Salmonella typhi-murium; clinical isolate SL 858): < 0.4 µg/mL | MIC (Salmonella typhi-murium; clinical isolate SL 2136): 50 µg/mL (≈ 83.1 µM) | Relative activity (β-lactamase): 1%
